Experiments:
DYRK1A [1] = molecular target: T1, DYRK1A (Homo sapiens, UniProt Q13627); assay: HiBiT split luciferase assay of targeted degradation of DYRK1A in Flp-In T-REx 293 cells; assay type: cell-based; settings: 300 nM compound, 24 h, HiBiT-tagged DYRK1A in Flp-In T-REx 293 cells, normalized to vehicle; read-out: Relative Degradation at 300 nM DYRK1A
T1 construct: purchased Eurofins; host or cells: E. coli BL21-derived (T7 phage display) or HEK-293
Description: (§1) The Flp-In T-REx 293 Cell Line and the pcDNA5/FRT/TO vector (Invitrogen) were used to generate stable cell clones for tetracyclin-inducible expression of DYRK1A and DYRK1B. These cells contain a single stably integrated Flp recognition target (FRT) site, which allows for site-specific integration of the expression cassette by the Flp (Flippase) recombinase. DYRK1 constructs were designed to contain a C-terminal HiBiT tag for quantitative detection of HiBiT-tagged proteins in cellular lysates with the help a split luciferase assay (Nano-Glo HiBiT Lytic Detection System, Promega). To monitor the targeted degradation of DYRK1A or DYRK1B, cells were seeded in 96-well plates (10,000 cells/per well) and treated with doxycyclineinal concentration 2 μg/ml) to induce DYRK1 expression. Compounds with presumed PROTAC activity were administered 24 h after seeding. After further incubation for 24 h, cells were grossly and microscopically inspected for overt toxicity. Cells were lysed in 100 μL ice-cold passive lysis buffer (PLB, Promega) by orbital shaking (30 min on ice) before lysates were centrifuged in PCR tube (20 min 20,000 g, RT). A 10 μl aliquot of the supernatant was subjected to the HiBiT lytic assay. Luminescence was quantified in an Orion Microplate luminometer (Berthold Detection System, Germany). All compounds were tested in duplicate or triplicate wells (technical replicates) and at least two independent experiments. Relative degradation was calculated by normalization to vehicle-treated control samples.

DYRK1B [2] = molecular target: T2, DYRK1B (Homo sapiens, UniProt Q9Y463); assay: HiBiT split luciferase assay of targeted degradation of DYRK1B in Flp-In T-REx 293 cells; assay type: cell-based; settings: 300 nM compound, 24 h, HiBiT-tagged DYRK1B in Flp-In T-REx 293 cells, normalized to vehicle; read-out: Relative Degradation at 300 nM DYRK1B
T2 construct: purchased Eurofins; host or cells: E. coli BL21-derived (T7 phage display) or HEK-293
T2 sequence (Q9Y463 whole entry, species assumed): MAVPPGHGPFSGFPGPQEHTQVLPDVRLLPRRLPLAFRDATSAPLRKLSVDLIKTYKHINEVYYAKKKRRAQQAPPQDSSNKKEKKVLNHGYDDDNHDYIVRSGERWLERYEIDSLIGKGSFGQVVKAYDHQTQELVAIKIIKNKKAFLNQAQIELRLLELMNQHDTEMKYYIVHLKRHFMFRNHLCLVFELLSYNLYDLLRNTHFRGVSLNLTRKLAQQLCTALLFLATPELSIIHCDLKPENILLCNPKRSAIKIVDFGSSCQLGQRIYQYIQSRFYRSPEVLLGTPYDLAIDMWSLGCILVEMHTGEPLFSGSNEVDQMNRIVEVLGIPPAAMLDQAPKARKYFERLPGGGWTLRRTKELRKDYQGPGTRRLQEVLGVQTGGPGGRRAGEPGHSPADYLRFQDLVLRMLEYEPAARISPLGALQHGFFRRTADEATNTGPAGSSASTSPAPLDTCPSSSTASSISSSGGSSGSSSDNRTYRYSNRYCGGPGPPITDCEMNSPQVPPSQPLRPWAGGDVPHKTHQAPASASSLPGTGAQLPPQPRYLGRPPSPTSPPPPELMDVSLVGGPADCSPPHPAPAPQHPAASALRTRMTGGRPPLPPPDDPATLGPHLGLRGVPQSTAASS
Description: as §1

DYRK1A [3] = molecular target: T1, DYRK1A; assay: KdELECT kinase binding assay (Eurofins), DYRK1A; settings: 11-point 3-fold dilution series, qPCR readout; read-out: Binding Affinity (Kd) DYRK1A
Method: (§2) KDs were obtained from Eurofins who used the following procedure: Kinase tagged T7 phase strains were prepared in an E. coli host derived from the BL21 strain. E. coli were grown to log-phase and infected with T7 phage and incubated with shaking at 32° C. until lysis. The lysates were centrifuged and filtered to remove cell debris. The remaining kinases were produced in HEK-293 cells and subsequently tagged with DNA for qPCR detection. Streptavidin-coated magnetic beads were treated with biotinylated small molecule ligands for 30 minutes at room temperature to generate affinity resins for kinase assays. The liganded beads were blocked with excess biotin and washed with locking buffer (SeaBlock (Pierce), 1% BSA, 0.05% Tween 20, 1 mM DTT) to remove unbound ligand and to reduce non-specific binding. Binding reactions were assembled by combining kinases, liganded affinity beads, and test compounds in 1× binding buffer (20% SeaBlock, 0.17× PBS, 0.05% Tween 20, 6 mM DTT). Test compounds were prepared as 111X stocks in 100% DMSO. Kds were determined using a 11-poin 3-fold compound dilution series with three DMSO control points. All compounds for Kd measurements are distributed by acoustic transfer (non-contact dispensing) in 100% DMSO. The compounds were then diluted directly into the assays such that the final concentration of DMSO was 0.9%. All reactions performed in polypropylene 384-well plate. Each was a final volume of 0.02 mL. The assay plates were incubated at room temperature with shaking for 1 hour and the affinity beads were washed with wash buffer (1×PBS, 0.05% Tween 20). The beads were then resuspended in elution buffer (1X PBS, 0.05% Tween 20, 0.5 µM nonbiotinylated affinity ligand) and incubated at room temperature with shaking for 30 minutes. The kinase concentration in the eluates was measured by qPCR.

DYRK1B [4] = molecular target: T2, DYRK1B; assay: KdELECT kinase binding assay (Eurofins), DYRK1B; settings: 11-point 3-fold dilution series, qPCR readout; read-out: Binding Affinity (Kd) DYRK1B
Method: as §2

| inhibition at 0.3 µM (DYRK1A [1]) | inhibition at 0.3 µM (DYRK1B [2]) | Kd (DYRK1A [3]) | Kd (DYRK1B [4]) | Compound |
| --- | --- | --- | --- | --- |
| 30 to 60% | < 30% | < 10 nM | < 10 nM | Cc1nc2ccc(-c3ccnc(N)c3)nc2n1-c1ccc(N2CCN(CCOCCOCCNc3cccc4c3C(=O)N(C3CCC(=O)NC3=O)C4=O)CC2)c(F)c1 (stereo not shown) [Compound 5, 4-((2-(2-(2-(4-(4-(5-(2-aminopyridin-4-yl)-2-methyl-3H-imidazo[4,5-b]pyridin-3-yl)-2-fluorophenyl)piperazin-1-yl)ethoxy)ethoxy)ethyl)amino)-2-(2,6-dioxopiperidin-3-yl)isoindoline-1,3-dione] |
| > 60% | > 50% | 10 to 100 nM | 10 to 100 nM | Cc1nc2ccc(-c3ccnc(N)c3)nc2n1-c1ccc(N2CCN(CCC#Cc3ccc(N4CCC(C(=O)N5CCC(n6cc(CNc7cccc8c7C(=O)N(C7CCC(=O)NC7=O)C8=O)cn6)CC5)CC4)nc3)CC2)c(F)c1 (stereo not shown) [Compound 19, 4-(((1-(1-(1-(5-(4-(4-(4-(5-(2-aminopyridin-4-yl)-2-methyl-3H-imidazo[4,5-b]pyridin-3-yl)-2-fluorophenyl)piperazin-1-yl)but-1-yn-1-yl)pyridin-2-yl)piperidine-4-carbonyl)piperidin-4-yl)-1H-pyrazol-4-yl)methyl)amino)-2-(2,6-dioxopiperidin-3-yl)isoindoline-1,3-dione] |
| > 60% | 30 to 50% | < 10 nM | < 10 nM | Cc1nc2ccc(-c3ccnc(N)c3)nc2n1-c1ccc(CN2CCN(CC#Cc3ccc(N4CCC(C(=O)N5CCC(n6cc(CNc7cccc8c7C(=O)N(C7CCC(=O)NC7=O)C8=O)cn6)CC5)CC4)nc3)CC2)cc1 (stereo not shown) [Compound 25, 4-(((1-(1-(1-(5-(3-(4-(4-(5-(2-aminopyridin-4-yl)-2-methyl-3H-imidazo[4,5-b]pyridin-3-yl)benzyl)piperazin-1-yl)prop-1-yn-1-yl)pyridin-2-yl)piperidine-4-carbonyl)piperidin-4-yl)-1H-pyrazol-4-yl)methyl)amino)-2-(2,6-dioxopiperidin-3-yl)isoindoline-1,3-dione] |
| < 30% | < 30% | < 10 nM | < 10 nM | Cc1ncsc1-c1ccc(CNC(=O)[C@@H]2C[C@@H](O)CN2C(=O)[C@@H](NC(=O)CCOCCOCCN2CCN(c3ccc(-n4c(C)nc5ccc(-c6ccnc(N)c6)nc54)cc3F)CC2)C(C)(C)C)cc1 [Compound 1, (2S,4R)-1-((S)-2-(3-(2-(2-(4-(4-(5-(2-aminopyridin-4-yl)-2-methyl-3H-imidazo[4,5-b]pyridin-3-yl)-2-fluorophenyl)piperazin-1-yl)ethoxy)ethoxy)propanamido)-3,3-dimethylbutanoyl)-4-hydroxy-N-(4-(4-methylthiazol-5-yl)benzyl)pyrrolidine-2-carboxamide] |
| > 60% | > 50% | < 10 nM | < 10 nM | Cc1nc2ccc(-c3ccnc(N)c3)nc2n1-c1cc(F)c(N2CCN(CC#Cc3ccc(N4CCC(C(=O)N5CCC(n6cc(CNc7cccc8c7C(=O)N(C7CCC(=O)NC7=O)C8=O)cn6)CC5)CC4)nc3)CC2)c(F)c1 (stereo not shown) [Compound 23, 4-(((1-(1-(1-(5-(3-(4-(4-(5-(2-aminopyridin-4-yl)-2-methyl-3H-imidazo[4,5-b]pyridin-3-yl)-2,6-difluorophenyl)piperazin-1-yl)prop-1-yn-1-yl)pyridin-2-yl)piperidine-4-carbonyl)piperidin-4-yl)-1H-pyrazol-4-yl)methyl)amino)-2-(2,6-dioxopiperidin-3-yl)isoindoline-1,3-dione] |
| > 60% | > 50% | 10 to 100 nM | 10 to 100 nM | Cc1nc2ccc(-c3ccnc(N)c3)nc2n1-c1ccc(N2CCN(CC#Cc3cncc(N4CCC(C(=O)N5CCC(n6cc(CNc7cccc8c7C(=O)N(C7CCC(=O)NC7=O)C8=O)cn6)CC5)CC4)n3)CC2)c(F)c1 (stereo not shown) [Compound 32, 4-(((1-(1-(1-(6-(3-(4-(4-(5-(2-aminopyridin-4-yl)-2-methyl-3H-imidazo[4,5-b]pyridin-3-yl)-2-fluorophenyl)piperazin-1-yl)prop-1-yn-1-yl)pyrazin-2-yl)piperidine-4-carbonyl)piperidin-4-yl)-1H-pyrazol-4-yl)methyl)amino)-2-(2,6-dioxopiperidin-3-yl)isoindoline-1,3-dione] |
| 30 to 60% | < 30% | < 10 nM | < 10 nM | Cc1nc2ccc(-c3ccnc(N)c3)nc2n1-c1ccc(N2CCN(CCOCCOCCOCCNc3cccc4c3C(=O)N(C3CCC(=O)NC3=O)C4=O)CC2)c(F)c1 (stereo not shown) [Compound 6, 4-((2-(2-(2-(2-(4-(4-(5-(2-aminopyridin-4-yl)-2-methyl-3H-imidazo[4,5-b]pyridin-3-yl)-2-fluorophenyl)piperazin-1-yl)ethoxy)ethoxy)ethoxy)ethyl)amino)-2-(2,6-dioxopiperidin-3-yl)isoindoline-1,3-dione] |
| > 60% | > 50% | < 10 nM | 10 to 100 nM | Cc1nc2ccc(-c3ccnc(N)c3)nc2n1-c1ccc(N2CCN(CC#Cc3ccc(N4CCC(C(=O)N5CCC(n6cc(CNc7cccc8c7C(=O)N(C7CCC(=O)NC7=O)C8=O)cn6)CC5)CC4)nc3)CC2)c(F)c1 (stereo not shown) [Compound 18, 4-(((1-(1-(1-(5-(3-(4-(4-(5-(2-aminopyridin-4-yl)-2-methyl-3H-imidazo[4,5-b]pyridin-3-yl)-2-fluorophenyl)piperazin-1-yl)prop-1-yn-1-yl)pyridin-2-yl)piperidine-4-carbonyl)piperidin-4-yl)-1H-pyrazol-4-yl)methyl)amino)-2-(2,6-dioxopiperidin-3-yl)isoindoline-1,3-dione] |
| < 30% | < 30% | < 10 nM | < 10 nM | Cc1ncsc1-c1ccc(CNC(=O)[C@@H]2C[C@@H](O)CN2C(=O)[C@@H](NC(=O)CCOCCOCCOCCOCCOCCN2CCN(c3ccc(-n4c(C)nc5ccc(-c6ccnc(N)c6)nc54)cc3F)CC2)C(C)(C)C)cc1 [Compound 4, (2S,4R)-1-((S)-1-(4-(4-(5-(2-aminopyridin-4-yl)-2-methyl-3H-imidazo[4,5-b]pyridin-3-yl)-2-fluorophenyl)piperazin-1-yl)-20-(tert-butyl)-18-oxo-3,6,9,12,15-pentaoxa-19-azahenicosan-21-oyl)-4-hydroxy-N-(4-(4-methylthiazol-5-yl)benzyl)pyrrolidine-2-carboxamide] |

| Compound | inhibition at 0.3 µM (DYRK1A [1]) | inhibition at 0.3 µM (DYRK1B [2]) | Kd (DYRK1A [3]) | Kd (DYRK1B [4]) |
| --- | --- | --- | --- | --- |
| Cc1nc2ccc(-c3ccnc(N)c3)nc2n1-c1ccc(N2C3CCC2CN(CC#Cc2ccc(N4CCC(C(=O)N5CCC(n6cc(CNc7cccc8c7C(=O)N(C7CCC(=O)NC7=O)C8=O)cn6)CC5)CC4)nc2)C3)c(F)c1 (stereo not shown) [Compound 21, 4-(((1-(1-(1-(5-(3-(8-(4-(5-(2-aminopyridin-4-yl)-2-methyl-3H-imidazo[4,5-b]pyridin-3-yl)-2-fluorophenyl)-3,8-diazabicyclo[3.2.1]octan-3-yl)prop-1-yn-1-yl)pyridin-2-yl)piperidine-4-carbonyl)piperidin-4-yl)-1H-pyrazol-4-yl)methyl)amino)-2-(2,6-dioxopiperidin-3-yl)isoindoline-1,3-dione] | 30 to 60% | < 30% | 10 to 100 nM | 100 to 1000 nM |

From patent US20260183407A1, “DYRK/CLK PROTACS AND USES THEREOF” (Arizona Board of Regents on Behalf of the University of …, priority 2022, published 2026)
